Experimental findings from patent publication US20230125667A1, “NOVEL TDZD ANALOGS AS AGENTS THAT DELAY, PREVENT, OR REVERSE AGE-ASSOCIATED DISEASES AND AS ANTI-CANCER AND ANTILEUKEMIC AGENTS” (United States Government as represented by the Department …, priority 2020, published 2023) are described below.

The test system of this test is MV4-11 cell line (myelomonocytic leukemia). As to conditions: MV4-11 cells.
[1] abbreviates: Ibuprofen-TDZD analogs (Table 3).

Where two headings read alike, the source gives them in different places.

Regarding `C=C1C(=O)O[C@H]2[C@H]1CC/C(COC(=O)NCc1ccc(Cn3c(=O)sn(-c4ccc(C#N)cc4)c3=O)cc1)=C\CC[C@@]1(C)O[C@@H]21` [BSK-263], where the note is “MMB-TDZD analogs (Table 2)”, the “LD50, 7AAD (μM) 24 h” value came to 0.23 µM; the “LD50, Alamar blue (μM) 24 h” value was determined as 0.75 µM; the “LD50, YOPRO (μM) 24 h” value amounted to 0.13 µM.
For `CC(C)Cc1ccc(C(C)C(=O)NCc2ccc(Cn3c(=O)sn(CCI)c3=O)cc2)cc1` (stereo not shown) [BSK-265], under setting [1], the “LD50, 7AAD (μM) 24 h” value came to 2.71 µM; the “LD50, Alamar blue (μM) 24 h” value was 2.50 µM; the “LD50, YOPRO (μM) 24 h” value was found to be 2.87 µM.
For the compound `CC(C)Cc1ccc(C(C)C(=O)NCc2ccc(Cn3c(=O)sn(-c4ccc(Cl)cc4)c3=O)cc2)cc1` (stereo not shown) [BSK-266], under setting [1], the “LD50, 7AAD (μM) 24 h” value is 10.7 µM; the “LD50, Alamar blue (μM) 24 h” value was 12.00 µM; the “LD50, YOPRO (μM) 24 h” value amounted to 10.6 µM.
Turning to `CC(C)Cc1ccc(C(C)C(=O)NCc2ccc(Cn3c(=O)sn(-c4ccc(C#N)cc4)c3=O)cc2)cc1` (stereo not shown) [BSK-267], under setting [1], the “LD50, 7AAD (μM) 24 h” value was found to be 14.8 µM; the “LD50, Alamar blue (μM) 24 h” value came to 12.00 µM; the “LD50, YOPRO (μM) 24 h” value worked out at 17.3 µM.
For the compound `C=C1C(=O)O[C@H]2[C@H]1CC/C(COC(=O)NCc1ccc(Cn3c(=O)sn(-c4ccc(Cl)cc4)c3=O)cc1)=C\CC[C@@]1(C)O[C@@H]21` [BSK-268], under “MMB-TDZD analogs (Table 2)”, the “LD50, 7AAD (μM) 24 h” value came to 0.55 µM; the “LD50, Alamar blue (μM) 24 h” value amounted to 0.63 µM; the “LD50, YOPRO (μM) 24 h” value stood at 0.68 µM. Further, the LD50 (values in text) was found to be 130 nM.
On to `COc1ccc(-n2sc(=O)n(Cc3ccc(CNC(=O)C(C)c4ccc(CC(C)C)cc4)cc3)c2=O)cc1` (stereo not shown) [BSK-270], for which, under setting [1], the “LD50, 7AAD (μM) 24 h” value amounted to 8.21 µM; the “LD50, Alamar blue (μM) 24 h” value was found to be 9.00 µM; the “LD50, YOPRO (μM) 24 h” value was determined as 6.14 µM.
As for `Cn1sc(=O)n(Cc2ccccc2)c1=O` [TDZD-8, 4-benzyl, 2-methyl, 1,2,4-thiadiazolidine, 3,5 dione, reference compound], under setting [1], the “LD50, 7AAD (μM) 24 h” value amounted to 3.61 µM; the “LD50, Alamar blue (μM) 24 h” value is 4.5 µM; the “LD50, YOPRO (μM) 24 h” value came to 3.29 µM. Also, where the note is “MMB-TDZD analogs (Table 2)”, the “LD50, 7AAD (μM) 24 h” value is 3.61 µM; the “LD50, Alamar blue (μM) 24 h” value came to 4.5 µM; the “LD50, YOPRO (μM) 24 h” value was 3.29 µM.
